Active and inactive are the calls of the source.
Assays:
[1] = growth suppression of PTEN-null colon cells, dose response, cell-based, HCT116 PTEN knockout (AID 1047); assay type: functional;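 also: HCT116 colon tumor cells with PTEN knocked out; cells exposed to compound for 60 hours before readout; potency for loss of cell viability measured by luminescence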
[2] = growth suppression of beta-catenin-knockout colon cells, dose response, cell-based, HCT116, human colon tumor (AID 1045); assay type: functional;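 also: HCT116 colon tumor cells with beta catenin knocked out; cells exposed to compound for 60 hours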
[3] = cytotoxicity in HMLE control line with eGFP shRNA, dose response, counter-screen for HMLE_sh_ECad selective toxicity project, cell-based, HMLE_sh_eGFP, luminescence (AID 463074); assay type: functional, Homo sapiens;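 also: HMLE human mammary epithelial cells expressing control shRNA against eGFP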
[4] = Luminescence Cell-Based Dose Retest to Confirm Inhibitors of Cancer Stem Cells. [Related pubchem assays (depositor defined):AID2717, AID2721]; assay type: functional; details: Homo sapiens
[5] = target: Trypsin (Sus scrofa, UniProt P00761); assay: porcine trypsin inhibitors, dose response, selectivity assay for Rce1 protease inhibitor project, biochemical, quenched peptide fluorescence, cherry-pick (AID 488789)
Sequence of Trypsin (P00761 whole entry): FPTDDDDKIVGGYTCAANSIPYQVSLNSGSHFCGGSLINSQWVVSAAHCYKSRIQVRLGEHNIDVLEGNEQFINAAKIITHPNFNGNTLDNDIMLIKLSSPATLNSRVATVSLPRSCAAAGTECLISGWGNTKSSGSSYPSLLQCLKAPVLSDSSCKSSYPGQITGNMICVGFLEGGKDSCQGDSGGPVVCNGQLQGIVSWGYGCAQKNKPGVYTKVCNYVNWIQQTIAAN

[6] = target: CAAX prenyl protease 2 (Saccharomyces cerevisiae S288c, UniProt Q03530); assay type: biochemical
Sequence of CAAX prenyl protease 2 (Q03530 whole entry): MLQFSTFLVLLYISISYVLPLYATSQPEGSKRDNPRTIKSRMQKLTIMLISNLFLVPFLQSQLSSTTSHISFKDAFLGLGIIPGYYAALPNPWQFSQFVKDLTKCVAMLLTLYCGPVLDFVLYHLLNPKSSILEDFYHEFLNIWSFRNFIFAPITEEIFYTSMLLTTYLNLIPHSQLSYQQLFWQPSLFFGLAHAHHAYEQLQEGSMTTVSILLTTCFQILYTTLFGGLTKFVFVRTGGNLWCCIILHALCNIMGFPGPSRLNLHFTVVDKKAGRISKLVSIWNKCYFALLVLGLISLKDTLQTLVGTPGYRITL

[7] = target: CAAX prenyl protease 1 (Saccharomyces cerevisiae S288c, UniProt P47154); assay: Ste24 protease inhibitors, dose response, biochemical, S. cerevisiae, plate reader, cherry-pick (AID 488815)
Sequence of CAAX prenyl protease 1 (P47154 whole entry): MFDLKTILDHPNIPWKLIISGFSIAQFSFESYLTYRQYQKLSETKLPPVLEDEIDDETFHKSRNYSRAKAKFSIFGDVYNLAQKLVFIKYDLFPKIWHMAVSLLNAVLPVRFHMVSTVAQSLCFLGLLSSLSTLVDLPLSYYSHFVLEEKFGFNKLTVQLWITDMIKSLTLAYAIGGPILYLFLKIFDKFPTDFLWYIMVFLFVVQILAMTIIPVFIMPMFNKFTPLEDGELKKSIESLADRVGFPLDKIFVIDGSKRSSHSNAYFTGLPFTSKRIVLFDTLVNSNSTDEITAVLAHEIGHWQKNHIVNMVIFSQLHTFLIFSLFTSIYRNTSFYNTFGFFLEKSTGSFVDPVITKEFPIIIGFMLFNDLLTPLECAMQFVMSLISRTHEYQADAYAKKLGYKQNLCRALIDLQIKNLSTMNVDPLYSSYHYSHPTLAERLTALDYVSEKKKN

[8] = tested on: Escherichia coli; assay: microbe, parasite or virus in culture
[9] = insulin promoter down-regulators in MIN6 cells, imaging, high-content screening, mouse beta cells (AID 1628); assay type: functional
[10] = cytotoxicity in MIN6 insulinoma cells, dose response, cytotoxicity control, cell-based, mouse insulinoma (AID 2122); assay type: functional;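 also: confirmatory high-throughput counterscreen run to flag cytotoxic compounds; mouse MIN-6 beta cells carrying an insulin promoter eGFP reporter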

Cc1nn(Cc2ccc(Cl)cc2)c(Cl)c1/C=N/NC(=O)CNc1ccccc1F
EC50 [1]: 15.8 µM (active) | EC50 [2]: 18 µM (active) | AC50 [3]: 24.9 µM (active) | AC50 [4]: 16.2 µM (active)

CCCCN1C(=O)/C(=C/Nc2cccnc2Cl)C(=O)N(CCCCl)C1=O
AC50 [5]: 47.1 µM (active) | AC50 [6]: 40.4 µM (active) | AC50 [7]: 7.88 µM (active)

COc1cc(SC)ccc1C(=O)Nc1cc(C)ccn1
AC50 [8]: 31.5 µM (active)

N=c1ccn(Cc2ccc(Cl)c(Cl)c2)cc1
IC50 [9]: 3.32 µM (active) | IC50 [10]: 4.07 µM (active)

— ChEMBL document CHEMBL1201862, “PubChem BioAssay data set” (2004)
